Counter-ions that a name gives are not always drawn.
Columns and labels:
Assay in all cases: MIC, agar dilution
Type in all cases: cell-based
[1] = tested on: Enterobacter cloacae, 8236; conditions: K-10 agar, 10^4 CFU, 37°C; for MIC: Enterobacter cloacae, 8236, 18 h
Procedure, shortened: (§1)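 Broth cultures grown 18-20 h at 37°C, diluted 1:100 in K-10 broth, applied by multipoint inoculator at 10^4 CFU onto K-10 agar holding twofold compound dilutions, 100 to 0.05 µg/ml final. MIC taken as lowest concentration inhibiting growth.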

Micrococcus luteus, 2495 = conditions: K-10 agar, 10^4 CFU, 37°C; for MIC: Micrococcus luteus, 2495, 18 h, read-out: M.I.C.
Procedure, shortened: as §1

[2] = tested on: Streptococcus agalactiae, 9287; conditions: K-10 agar, 10^4 CFU, 37°C; for MIC: Streptococcus agalactiae, 9287, 18 h, read-out: M.I.C.
Procedure, shortened: as §1

Proteus mirabilis, 3855 = conditions: K-10 agar, 10^4 CFU, 37°C; for MIC: Proteus mirabilis, 3855, 18 h, read-out: M.I.C.
Procedure, shortened: (§2)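 MIC, the lowest compound concentration preventing visible growth, is read after plates incubate 18 h at 37°C. Plates hold K-10 agar with twofold drug dilutions spanning 100 to 0.05 µg/ml, each spot-inoculated with 10^4 CFU.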

[3] = tested on: Pseudomonas aeruginosa, 8329; conditions: K-10 agar, 10^4 CFU, 37°C, 18 hours; for MIC: read-out: M.I.C.
Procedure, shortened: as §2

[4] = tested on: Staphylococcus aureus, 2400; conditions: Staphylococcus aureus, 2400, K-10 agar, 10^4 CFU, 37°C, 18 hours; for MIC: read-out: M.I.C.
Procedure, shortened: as §2

[5] = tested on: Streptococcus faecalis, 9011; conditions: Streptococcus faecalis, 9011, K-10 agar, 10^4 CFU, 37°C, 18 hours; for MIC: Enterococcus faecalis, read-out: M.I.C.
Procedure, shortened: as §2

Escherichia coli, 10857 = conditions: K-10 agar, 10^4 CFU, 37°C; for MIC: Escherichia coli, 10857, 18 h
Procedure, shortened: as §2

[6] = tested on: Pseudomonas aeruginosa, 9545; conditions: K-10 agar, 10^4 CFU, 37°C; for MIC: Pseudomonas aeruginosa, 9545, 18 h, read-out: M.I.C.
Procedure, shortened: as §2

Salmonella typhosa, 1195 = conditions: K-10 agar, 10^4 CFU, 37°C; for MIC: Salmonella enterica, TYPHOSA, 18 h
Procedure, shortened: as §2

[7] = tested on: Enterobacter aerogenes, 10078; conditions: Enterobacter aerogenes, 10078, K-10 agar, 10^4 CFU, 37°C, 18 hours; for MIC: Klebsiella aerogenes, 10078, 18 h, read-out: M.I.C.
Procedure, shortened: as §2

Escherichia coli, 10896 = conditions: K-10 agar, 10^4 CFU, 37°C, 18 hours
Procedure, shortened: as §2

Proteus vulgaris, 9416 = conditions: K-10 agar, 10^4 CFU, 37°C, 18 hours; for MIC: read-out: M.I.C.
Procedure, shortened: as §2

Shigella sonnei, 8449 = conditions: K-10 agar, 10^4 CFU, 37°C; for MIC: Shigella sonnei, 8449, 18 h
Procedure, shortened: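 Test strains are first grown in broth at 37°C for 18–20 hours, then diluted 1:100. Compounds are serially halved and mixed into K-10 agar at final levels from 100 to 0.05 µg/ml. Each plate receives about 10^4 CFU per organism, and growth is scored after 18 hours at 37°C.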

[8] = tested on: Staphylococcus aureus, 1276; conditions: Staphylococcus aureus, 1276, K-10 agar, 10^4 CFU, 37°C, 18 hours; for MIC: read-out: M.I.C.
Procedure, shortened: as §2

[9] = tested on: Serratia marcescens, 9783; conditions: K-10 agar, 10^4 CFU, 37°C; for MIC: Serratia marcescens, 9783, 18 h, read-out: M.I.C.
Procedure, shortened: as §2

[10] = tested on: Acinetobacter calcoaceticus, 8333; conditions: K-10 agar, 10^4 CFU, 37°C; for MIC: Acinetobacter calcoaceticus, 8333, 18 h, read-out: M.I.C.
Procedure, shortened: as §2

[11] = tested on: Staphylococcus aureus, 10165; conditions: Staphylococcus aureus, 10165, K-10 agar, 10^4 CFU, 37°C, 18 hours; for MIC: read-out: M.I.C.
Procedure, shortened: as §2

[12] = tested on: Klebsiella pneumoniae, 9527; conditions: K-10 agar, 10^4 CFU, 37°C; for MIC: Klebsiella pneumoniae, 9527, 18 h, read-out: M.I.C.
Procedure, shortened: as §2

Proteus rettgeri, 8479 = conditions: K-10 agar, 10^4 CFU, 37°C, 18 hours; for MIC: Providencia rettgeri, read-out: M.I.C.
Procedure, shortened: as §2

Escherichia coli, 10909 = conditions: K-10 agar, 10^4 CFU, 37°C, 18 hours
Procedure, shortened: as §2

[13] = tested on: Staphylococcus aureus, 2399; conditions: Staphylococcus aureus, 2399, K-10 agar, 10^4 CFU, 37°C, 18 hours; for MIC: Staphylococcus aureus, 2399, 18 h, read-out: M.I.C.
Procedure, shortened: as §2

[14] = tested on: Citrobacter freundii, 9518; conditions: K-10 agar, 10^4 CFU, 37°C, 18 hours; for MIC: read-out: M.I.C.
Procedure, shortened: as §2

[15] = tested on: Klebsiella aerogenes, 10440; conditions: K-10 agar, 10^4 CFU, 37°C, 18 hours; for MIC: read-out: M.I.C.
Procedure, shortened: as §2

Escherichia coli, 8294 = conditions: K-10 agar, 10^4 CFU, 37°C; for MIC: Escherichia coli, 8294, 18 h
Procedure, shortened: as §2

CON=C(C(=O)NC1C(=O)N(S(=O)(=O)O)C1C)c1csc(N)n1 (stereo not drawn) [Example 9, [3S-[3α(Z),4α]]-3-[[2-Amino-4-thiazolyl)-methoxyimino)acetyl]amino-4-methyl-2-oxo-1-azetidinesulfonic acid, potassium salt]
M.I.C. ([1]; 18 hours, potassium salt): 0.1 µg/mL | M.I.C. (Micrococcus luteus, 2495; 18 hours, potassium salt): 6.3 µg/mL | M.I.C. ([2]; 18 hours, potassium salt): 1.6 µg/mL | M.I.C. (Proteus mirabilis, 3855; 18 hours, potassium salt): <0.05 µg/mL | M.I.C. [3]: 100 µg/mL | M.I.C. [4]: 50 µg/mL | M.I.C. [5]: - (A dash (-) in the tables means that the compound tested did not show activity against the particular organism at 100 µg/ml) | M.I.C. (Escherichia coli, 10857; 18 hours): <0.05 µg/mL | M.I.C. ([6]; 18 hours, potassium salt): 0.4 µg/mL | M.I.C. (Salmonella typhosa, 1195; 18 hours): <0.05 µg/mL | M.I.C. ([7]; potassium salt): 0.2 µg/mL | M.I.C. (Escherichia coli, 10896): 0.1 µg/mL | M.I.C. (Proteus vulgaris, 9416): <0.05 µg/mL | M.I.C. (Shigella sonnei, 8449; 18 hours): 0.1 µg/mL | M.I.C. [8]: 100 µg/mL | M.I.C. ([9]; 18 hours, potassium salt): 0.2 µg/mL | M.I.C. ([10]; 18 hours, potassium salt): 25 µg/mL | M.I.C. [11]: - (A dash (-) in the tables means that the compound tested did not show activity against the particular organism at 100 µg/ml) | M.I.C. ([12]; 18 hours, potassium salt): <0.05 µg/mL | M.I.C. (Proteus rettgeri, 8479): <0.05 µg/mL | M.I.C. (Escherichia coli, 10909): <0.05 µg/mL | M.I.C. ([13]; potassium salt): 50 µg/mL | M.I.C. [14]: 0.1 µg/mL | M.I.C. [15]: 0.2 µg/mL | M.I.C. (Escherichia coli, 8294; 18 hours): 0.1 µg/mL

CC1C(NC(=O)C(NC(=O)N2CCN(N=Cc3ccco3)C2=O)c2ccccc2)C(=O)N1S(=O)(=O)O (stereo not drawn) [Example 11, [3S-[3α(R*),4β]]-3-[[[[[3-[(2-furanyl-methylene)amino]-2-oxo-1-imidazolidinyl]-carbonyl]amino]phenylacetyl]amino]-4-methyl-2-oxo-1-azetidinesulfonic acid, potassium salt]
MIC [1]: 0.8 µg/mL | MIC (Micrococcus luteus, 2495): 6.3 µg/mL | MIC [2]: 0.4 µg/mL | MIC (Proteus mirabilis, 3855): 0.4 µg/mL | MIC [3]: 12.5 µg/mL | MIC [4]: 25 µg/mL | MIC [5]: > 100 µg/mL | MIC (Escherichia coli, 10857): < 0.05 µg/mL | MIC [6]: 1.6 µg/mL | MIC (Salmonella typhosa, 1195): 0.2 µg/mL | MIC [7]: 1.6 µg/mL | MIC (Escherichia coli, 10896): 0.4 µg/mL | MIC (Proteus vulgaris, 9416): < 0.05 µg/mL | MIC (Shigella sonnei, 8449): 0.4 µg/mL | MIC [8]: 25 µg/mL | MIC [9]: 0.8 µg/mL | MIC [10]: 12.5 µg/mL | MIC [11]: > 100 µg/mL | MIC [12]: 0.1 µg/mL | MIC (Proteus rettgeri, 8479): 0.4 µg/mL | MIC (Escherichia coli, 10909): 0.1 µg/mL | MIC [13]: 25 µg/mL | MIC [14]: 0.8 µg/mL | MIC [15]: 0.8 µg/mL | MIC (Escherichia coli, 8294): 1.6 µg/mL

CCN1CCN(C(=O)NC(C(=O)NC2C(=O)N(S(=O)(=O)O)C2C)c2ccccc2)C(=O)C1=O (stereo not drawn) [Example 12, [3S-[3α(R*),4β]]-3-[[[[(4-ethyl-2,3-dioxo-1-piperazinyl)carbonyl]amino]phenylacetyl]-amino]-4-methyl-2-oxo-1-azetidinesulfonic acid, potassium salt]
MIC [1]: 1.6 µg/mL | MIC (Micrococcus luteus, 2495): 6.3 µg/mL | MIC [2]: 6.3 µg/mL | MIC (Proteus mirabilis, 3855): 0.4 µg/mL | MIC [3]: 12.5 µg/mL | MIC [4]: 50 µg/mL | MIC [5]: > 100 µg/mL | MIC (Escherichia coli, 10857): < 0.05 µg/mL | MIC [6]: 0.8 µg/mL | MIC (Salmonella typhosa, 1195): 0.2 µg/mL | MIC [7]: 3.1 µg/mL | MIC (Escherichia coli, 10896): 1.6 µg/mL | MIC (Proteus vulgaris, 9416): < 0.05 µg/mL | MIC (Shigella sonnei, 8449): 0.8 µg/mL | MIC [8]: 25 µg/mL | MIC [9]: 1.6 µg/mL | MIC [10]: 12.5 µg/mL | MIC [11]: > 100 µg/mL | MIC [12]: 0.1 µg/mL | MIC (Proteus rettgeri, 8479): 0.4 µg/mL | MIC (Escherichia coli, 10909): 0.1 µg/mL | MIC [13]: 50 µg/mL | MIC [14]: 1.6 µg/mL | MIC [15]: 1.6 µg/mL | MIC (Escherichia coli, 8294): 1.6 µg/mL

— EP0187355A1, “Process for preparing beta-lactam antibiotics” (E.R. Squibb & Sons, Inc., priority 1981, dated 1982)
